# Patent publication US10051861B2, “N-arylamidine-substituted trifluoroethyl sulfide derivatives as acaricides and insecticides” (BAYER CROPSCIENCE AG, priority 2011, dated 2018)
# Tested on: greenhouse red spider mite (Tetranychus urticae)
# Test: Tetranychus urticae spray test, OP-resistant (TETRUR), bean leaf disks
# Type: in vivo
# Settings: Tetranychus urticae, foliar, 144 h, application rate 100 g/ha, after 6 days; read-out: efficacy (spider mites killed)
# Protocol: After 6 days, the effect in % is determined.
row,SMILES,pest or weed control at 100 g/ha [%]
1,Cc1cc(F)c(/N=C(\N)C2(Cl)CC2)cc1SCC(F)(F)F [Ia-58],100
2,Cc1cc(F)c(/N=C(\N)c2cccs2)cc1SCC(F)(F)F [Ia-181],90

# Same assay, conditions: Tetranychus urticae, foliar, 144 h, application rate 500 g/ha, after 6 days; read-out: efficacy (spider mites killed)
row,SMILES,pest or weed control at 500 g/ha [%]
1,CN/C(=N\c1cc([S+]([O-])CC(F)(F)F)c(C)cc1F)c1cnc(Cl)c(Cl)c1 (stereo not drawn) [Ib-104],90
2,N#CC/C(N)=N/c1cc(SCC(F)(F)F)c(Cl)cc1Cl [Ia-173],90
3,CN(C)/C(=N\c1cc(SCC(F)(F)F)c(Cl)cc1Cl)C(F)(F)F [Ia-57],100
4,Cc1cc(F)c(/N=C(\c2cccn2C)N(C)C)cc1[S+]([O-])CC(F)(F)F (stereo not drawn) [Ib-82],100
5,Cc1cc(C)c([S+]([O-])CC(F)(F)F)cc1/N=C(\NCC(F)(F)F)C1CCC1 (stereo not drawn) [Ib-142],90
6,Cc1cc(C)c(SCC(F)(F)F)cc1/N=C1\SCC(=O)N1CC(F)(F)F [Ia-272],100
7,CN1CCC/C1=N\c1cc(SCC(F)(F)F)c(Cl)cc1Cl [Ia-68],90
8,Cc1cc(C)c(SCC(F)(F)F)cc1/N=C(/c1cccnc1)N(C)C [Ia-167],90
9,CCN/C(=N\c1cc(SCC(F)(F)F)c(C)cc1C)c1cccnc1 [Ia-224],100
10,Cc1cc(C)c(SCC(F)(F)F)cc1/N=C(\N)c1ccccn1 [Ia-98],100
11,Cc1cc(F)c(/N=C(\c2cccc(F)c2)N(C)C)cc1[S+]([O-])CC(F)(F)F (stereo not drawn) [Ib-66],90
12,Cc1cc(C)c([S+]([O-])CC(F)(F)F)cc1/N=C1\CCCN1C(C)C(F)(F)F (stereo not drawn) [Ib-112],100
13,CN/C(=N\c1cc([S+]([O-])CC(F)(F)F)c(Cl)cc1C)c1cccnc1 (stereo not drawn) [Ib-103],90
14,N/C(=N\c1cc(SCC(F)(F)F)c(Cl)cc1Cl)c1ccc(Cl)cc1 [Ia-266],90
15,Cc1cc(F)c(/N=C(/NC2COC2)C(F)(F)F)cc1SCC(F)(F)F [Ia-54],100
16,CN(C)/C(=N\c1cc(SCC(F)(F)F)c(Cl)cc1Cl)c1ccc(Cl)cc1 [Ia-211],100
17,Cc1ccc(/N=C(/N(C)C)C(F)(F)F)cc1SCC(F)(F)F [Ia-222],100
18,O=C1CS/C(=N\c2ccc(Cl)c(SCC(F)(F)F)c2)N1CC(F)(F)F [Ia-194],100
19,FC(F)CN/C(=N\c1cc(SCC(F)(F)F)c(Cl)cc1Cl)C1CCCC1 [Ia-256],90
20,Cc1cc(Cl)c(SCC(F)(F)F)cc1/N=C(\N)C(F)(F)F [Ia-76],100
21,COC/C(N)=N/c1cc(SCC(F)(F)F)c(C)cc1F [Ia-82],100
22,N/C(=N\c1cccc(SCC(F)(F)F)c1)c1ccccn1 [Ia-83],100
23,CN(C)/C(=N\c1cc(SCC(F)(F)F)c(Cl)cc1Cl)c1ccc(Cl)nc1 [Ia-237],90
24,CN/C(=N\c1cc([S+]([O-])CC(F)(F)F)c(Cl)cc1C)C(F)(F)F (stereo not drawn) [Ib-90],100
25,Cc1cc(F)c(/N=C2\CCCCN2C)cc1SCC(F)(F)F [Ia-90],80

row,SMILES,pest or weed control at 500 g/ha [%]
1,[O-][S+](CC(F)(F)F)c1cc(/N=C(\NC2CC2)c2ccc(Cl)nc2)c(Cl)cc1Cl (stereo not drawn) [Ib-151],100
2,Cc1cc(F)c(/N=C2\SCC(=O)N2C)cc1[S+]([O-])CC(F)(F)F (stereo not drawn) [Ib-134],90
3,N/C(=N\c1cc(SCC(F)(F)F)c(Cl)cc1Cl)C1(Cl)CC1 [Ia-123],100
4,Cc1cc(C)c(SCC(F)(F)F)cc1/N=C(\NCC(F)(F)F)C1CCC1 [Ia-267],90
5,Cc1cc(F)c(/N=C(\N)C2CC2(F)Cl)cc1SCC(F)(F)F (stereo not drawn) [Ia-67],100
6,FC(F)(F)CSc1cc(/N=C(\NCCc2ncc(C(F)(F)F)cc2Cl)C2CC2)c(Cl)cc1Cl [Ia-235],90
7,CCN(C)/C(=N/c1cc([S+]([O-])CC(F)(F)F)c(C)cc1F)C(F)(F)F (stereo not drawn) [Ib-23],90
8,Cc1cc(F)c(/N=C(\NCC(F)(F)F)C2CCC2)cc1[S+]([O-])CC(F)(F)F (stereo not drawn) [Ib-166],90
9,CN/C(=N/c1cc([S+]([O-])CC(F)(F)F)c(Cl)cc1F)C(F)(F)F (stereo not drawn) [Ib-41],90
10,NN/C(=N/c1cc(SCC(F)(F)F)c(Cl)cc1F)C(F)(F)F [Ia-155],90
11,CN/C(=N/c1cc([S+]([O-])CC(F)(F)F)c(C)cc1F)c1ccc(C(F)(F)F)cc1 (stereo not drawn) [Ib-145],90
12,Cc1cc(C)c([S+]([O-])CC(F)(F)F)cc1/N=C1\SCC(=O)N1CC(F)(F)F (stereo not drawn) [Ib-141],100
13,CN/C(=N\c1cc(SCC(F)(F)F)c(Cl)cc1C)C(F)(F)F [Ia-87],100
14,CN/C(=N\c1cc(SCC(F)(F)F)c(Cl)cc1Cl)c1ccc(C(F)(F)F)nc1 [Ia-264],90
15,[O-][S+](CC(F)(F)F)c1cc(/N=C(\NCC(F)F)C2CC2)c(Cl)cc1Cl (stereo not drawn) [Ib-129],100
16,Cc1cc(F)c(/N=C(\c2ccc(F)cc2)N(C)C)cc1[S+]([O-])CC(F)(F)F (stereo not drawn) [Ib-60],90
17,Cc1cc(F)c(/N=C(/NC2CS(=O)(=O)C2)C(F)(F)F)cc1[S+]([O-])CC(F)(F)F (stereo not drawn) [Ib-91],90
18,CCN(CC)/C(=N/c1cc(SCC(F)(F)F)c(C)cc1F)C(F)(F)F [Ia-51],100
19,Cc1cc(F)c(/N=C(\N)C(F)(F)C(F)(F)Cl)cc1SCC(F)(F)F [Ia-47],100
20,CN/C(=N/c1cc([S+]([O-])CC(F)(F)F)c(C)cc1F)c1cccc(F)c1 (stereo not drawn) [Ib-67],90
21,CN/C(=N\c1cc(SCC(F)(F)F)c(C)cc1F)c1cnc(Cl)c(Cl)c1 [Ia-148],100
22,Cc1cc(C)c([S+]([O-])CC(F)(F)F)cc1/N=C(\N)c1ccccn1 (stereo not drawn) [Ib-102],90
23,CN(C)/C(=N/c1cc(SCC(F)(F)F)c(Br)cc1Br)C(F)(F)F [Ia-32],100
24,N/C(=N\c1cccc(SCC(F)(F)F)c1)c1cccnc1 [Ia-104],90
25,Cc1cc(C)c([S+]([O-])CC(F)(F)F)cc1/N=C(\N)C1(Cl)CC1 (stereo not drawn) [Ib-79],100

row,SMILES,pest or weed control at 500 g/ha [%]
1,Cc1cc(F)c(/N=C(\c2ccc(F)cc2)N(C)C)cc1SCC(F)(F)F [Ia-128],90
2,N/C(=N\c1cc(SCC(F)(F)F)c(Cl)cc1Cl)C1CCCCC1 [Ia-156],100
3,CCN/C(=N\c1cc([S+]([O-])CC(F)(F)F)c(C)cc1F)c1cccnc1 (stereo not drawn) [Ib-84],100
4,Cc1cc(F)c(/N=C(\N)C2(Cl)CC2)cc1[S+]([O-])CC(F)(F)F (stereo not drawn) [Ib-22],100
5,N/C(=N\c1cc(SCC(F)(F)F)c(Cl)cc1Cl)C1CC1(Cl)Cl (stereo not drawn) [Ia-140],100
6,Cc1ccc(/N=C2\SCC(=O)N2CC(F)(F)F)cc1[S+]([O-])CC(F)(F)F (stereo not drawn) [Ib-139],100
7,Cc1cc(C)c([S+]([O-])CC(F)(F)F)cc1/N=C(\NC(C)C(F)(F)F)C1CC1 (stereo not drawn) [Ib-160],100
8,Cc1cc(C)c([S+]([O-])CC(F)(F)F)cc1/N=C(/c1ccccc1Cl)N1CCOCC1 (stereo not drawn) [Ib-157],90
9,COc1cc(C)c(SCC(F)(F)F)cc1/N=C(/c1ccc(Cl)cc1)N(C)C [Ia-252],90
10,Cc1cc(F)c(/N=C2\SCC(=O)N2C2CC2)cc1[S+]([O-])CC(F)(F)F (stereo not drawn) [Ib-135],100
11,Cc1cc(F)c(/N=C(/C2CC2)N(C)C)cc1SCC(F)(F)F [Ia-93],100
12,Cc1cc(C)c([S+]([O-])CC(F)(F)F)cc1/N=C(/c1ccc(Cl)nc1)N(C)C (stereo not drawn) [Ib-133],90
13,Cc1cc(Cl)c(SCC(F)(F)F)cc1/N=C(\N)c1cnccn1 [Ia-234],100
14,CN/C(=N/c1cc([S+]([O-])CC(F)(F)F)c(C)cc1F)c1ccc(C(F)(F)F)nc1 (stereo not drawn) [Ib-92],100
15,Cc1cc(F)c(/N=c2\scc(C3(Cl)CC3)n2CC(F)(F)F)cc1[S+]([O-])CC(F)(F)F (stereo not drawn) [Ib-172],90
16,Cc1cc(F)c(/N=C(\N)c2ccncn2)cc1SCC(F)(F)F [Ia-42],100
17,Cc1cc(C)c(SCC(F)(F)F)cc1/N=C(\NC1CC1)c1ccc(Cl)nc1 [Ia-232],90
18,Cc1cc(F)c(/N=C(\N)C2CCCC2)cc1SCC(F)(F)F [Ia-161],100
19,Cc1cc(F)c(/N=C(\N)C2CCC2)cc1[S+]([O-])CC(F)(F)F (stereo not drawn) [Ib-99],100
20,CN/C(=N\c1cc(SCC(F)(F)F)c(C)cc1C)c1ccncc1 [Ia-239],100
21,Cc1cc(F)c(/N=C(/N)c2ccc([N+](=O)[O-])cc2)cc1SCC(F)(F)F [Ia-223],90
22,O=C1CS/C(=N\c2cc([S+]([O-])CC(F)(F)F)c(Cl)cc2Cl)N1C1CC1 (stereo not drawn) [Ib-122],90
23,CN/C(=N/c1ccc(C)c([S+]([O-])CC(F)(F)F)c1)C(F)(F)F (stereo not drawn) [Ib-125],100
24,FC(F)CN/C(=N\c1cc(SCC(F)(F)F)c(Cl)cc1Cl)C1CC1 [Ia-253],90

# Same assay, conditions: Tetranychus urticae, foliar, 144 h, read-out: efficacy (spider mites killed)
row,SMILES,pest or weed control at 500 g/ha [%]
1,"COc1cc(C)c(SCC(F)(F)F)cc1/N=C(/c1ccc(Cl)cc1)N1CCOCC1 [Ia-268, N-[(4-Chlorophenyl)(morpholin-4-yl)methylene]-2-methoxy-4-methyl-5-[(2,2,2-trifluoroethyl)sulfanyl]aniline]",90

# Same assay, conditions: application rate 500 g/ha, after 6 days
row,SMILES,efficacy (spider mites killed) [%]
1,Cc1cc(F)c(N=C(N(Cc2ccccn2)Cc2ccccn2)C(F)(F)F)cc1SCC(F)(F)F [Ia-08],100
2,CNC(=Nc1cc(SCC(F)(F)F)c(C)cc1Cl)C(F)(F)F [Ia-20],100
3,Cc1cc(F)c(/N=C(\c2ccc(C#N)cc2)N(C)C)cc1[S+]([O-])CC(F)(F)F (stereo not drawn) [Ib-77],90
4,Cc1ccc(N=C(N)C(F)(F)F)cc1SCC(F)(F)F [Ia-25],100
